Reference: patent US20230107216A1, “PANTETHEINE DERIVATIVES AND USES THEREOF” (Comet Therapeutics, Inc., priority 2018, published 2023)
Read-outs that look alike come from different tables or passages of the source.

How the values were obtained:
[1] = system: primary fibroblasts GM00649, GM06225, GM00612, GM00444, GM03672; test: MMP, ROS and ATP multiplex (ArrayScan); format: cell-based; conditions: Homo sapiens, Fibroblast; Leigh GM03672; procedure Example 838; 50 μM (table line r25); read-out: Decreased ROS by at least 10%
Protocol: Cell culture and treatments. Primary adherent fibroblasts were cultured in minimum essential medium (MEM) (Gibco, 25030081) supplemented with 2 mM L-Glutamine (Gibco, 25030081), 15% fetal bovine serum (FBS) (Gibco, 26400044) and 1% penicillin/streptomycin (Gibco, 5140122) at 37° C. and 5% CO2. Cells were collected for either passaging or experiment at ˜70-80% confluence. Cells were obtained by trypsinization and seeded at 10000 cells/well in cell culture microplates (Seahorse Bioscience, 101085-004) and allowed to adhere for 16 hours in culture media. After media was refreshed with DMEM (Agilent Seahorse 103575-100) supplemented with 1 mM glucose and 10% FBS (Gibco, 26400044). At the end of the incubation period, the cells were loaded with the relevant dye/antibody for each cell health marker. The assay provided simultaneous measurement of cell health parameters including cell count, ROS formation (DHE), mitochondrial membrane potential (MitoTracker®) and cellular ATP content (CellTiter-Glo®, Promega). The plates were then scanned using an automated fluorescent cellular imager, ArrayScan® (Thermo Scientific Cellomics). Assay conditions were optimized by one skilled in the art.
Primary cells used in this example were obtained from Coriell Institute for Medical Research and consisted of GM00649, MSUD (Maple Syrup Urine Disease) Tyle IA; GM06225, Kearns-Sayre Syndrome; GM00612, MSUD (Maple Syrup Urine Disease) Tyle II GM00444, Pyruvate Carboxylase Deficiency and GM03672, Leigh Syndrome.

[2] = system: Propionic Acidemia (PA) primary fibroblasts GM00371; test: Mitochondrial respiration, XFe96 Extracellular Flux Analyzer (OCR/ECAR), PA fibroblasts GM00371; format: cell-based; conditions: Homo sapiens, Fibroblast
[3] = system: primary fibroblasts (healthy controls and PA, MMA, BCKDK, PDH, VLCAD, LS, PC, GA, VLCFA, KSS, FXN, HD); test: Measurement of ROS (H2DCFDA) in primary fibroblasts; format: cell-based, human; conditions: Homo sapiens, procedure Example 812, Assay Condition C
Summary of the method: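 Patient and healthy-control primary fibroblasts switched to supplemented DMEM 24 h before assay, then treated with compound (10 μM) plus H2DCFDA (22 μM) for 2 h (PA, MMA lines) or 24 h (other lines). Kinetic fluorescence at 492/527 nm over 60 min; only live cells analysed.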

[4] = system: Leigh Syndrome (LS) primary fibroblasts GM03672; test: NADP+/NADPH (NADP/NADPH-Glo), Leigh fibroblasts GM03672; format: cell-based; conditions: Homo sapiens, Fibroblast, Leigh GM03672 P8, assay condition B (1 mM glucose, 2 mM L-glutamine, 1 mM pyruvate, 10% FBS), 24h, read-out: Increase in Total NADP+ + NADPH
Protocol: Primary adherent fibroblasts were cultured in minimum essential medium (MEM) (Gibco, 25030081) supplemented with 2 mM L-Glutamine (Gibco, 25030081), 15% fetal bovine serum (FBS) (Gibco, 26400044) and 1% penicillin/streptomycin (Gibco, 5140122) at 37° C. and 5% CO2. Cells were collected for either passaging or experiment at ˜70-80% confluence. Cells were obtained by trypsinization and seeded in cell culture microplates either white plate (Thermo Fisher Scientific, 152028) for luminescent measurement or black plate (Thermo Fisher Scientific, 165305) for fluorescent based read out for different assays listed below. Cells were obtained by trypsinization and […] were seeded and allowed to adhere for 16-18 hours to have confluency around 70-80% in the cell well with culture media. After 24 hours prior to measurements (37° C., 5% CO2) media was changed to Dulbecco's Modified Eagle Medium (DMEM, Agilent Seahorse cat #103575-100) with the appropriate supplements as stated below.
Primary fibroblasts assayed were Propionic Acidemia (PA) (GM03590 Coriell Institute for Medical Research, Tsi 6337 Trans-Hit Bio), Methylmalonic Acidemia (MMA) (Tsi 5224 Trans-Hit Bio), Subnormal activation of pyruvate dehydrogenase complex (PDH) (GM01503 Coriell Institute for Medical Research), Very long-chain acyl-CoA dehydrogenase (VLCAD) (GM17475), Leigh Syndrome (LS) (GM03672, GM13411 Coriell Institute for Medical Research), Pyruvate Carboxylase Deficiency (PC) (GM00444 Coriell Institute for Medical Research). 10 μM of Compounds were added for 2 hours in PA, MMA lines and for 24h for the other fibroblast lines.
Assay was performed according to manufacturer instructions (NADP+/NADPH-Glo Assay Promega, G9082). Assay required a plate for total measurement of NADP+/NADPH and a plate for individual measurement of NADP+ or NADPH. For every assay a 12-point standard curve is prepared ranging from 400 nM to 0.625 nM. Media is removed and replaced with 50 μl of PBS for both assays.
For individual NADP+/NADPH measurements, 50 μl of 1% DTAB (Sigma, D5047) (cell lysis reagent) in 0.2N NaOH was added to the plates and 100 μl of lysate was split into two plates with 50 μl each from which ratio of NADP/NADPH can be calculated. 25 μl of 0.4N HCl were added to the NADP+ plates and both NADP+ and NADPH plates were heated at 60° C. for 15 minutes. The acid and heat treatment destroyed NADPH allowing individual NADP+ measurements while heating in basic conditions destroys NADP+ allowing individual NADPH measurement. After 15 minutes plates were allowed to come to room temperature and Trizma base (Sigma, T1699) was added to the NADP+ plates to neutralize the acid and HCl Trizma hydrochloride (Sigma, T2694) was added to the NADPH plates. The NADNADPH glo reagent was prepared by adding 125 μl of NAD cycling substrate, 125 μl of reductase, 125 μl of reductase substrate, 125 μl NAD cycling enzyme to a total of the 25 ml of NAD GLO reagent. 1:1 ratio of total volume of reagent was added to the individual NADP+, NADPH measurements (total 100 μl) and 50 μl were added for the total NAD/NADPH measurements. Luminescence was measured for 30-60 minutes within the linear range.
A total dead cell count was performed as described in Example 817 and only alive cells were used for analysis.

[5] = system: Dermal fibroblasts (HDF3CGF system); test: BioMAP HDF3CGF system (IL-1β, TNFα, IFNγ, EGF, bFGF, PDGF-BB); format: cell-based, human; conditions: Homo sapiens, Fibroblast, 72 h; 1 uM; read-out: % increase in 72 Hour Proliferation
HepG2 cells = test: Glucose uptake (Glucose Uptake-Glo); format: cell-based; conditions: Homo sapiens, 50 uM, read-out: % increase in Glucose Uptake
[6] = system: Peripheral blood mononuclear cells co-cultured with B-cells (BT system); test: cells; conditions: Homo sapiens, 72 h, read-out: % decrease in sIL-17
[7] = system: Peripheral blood mononuclear cells co-cultured with venular endothelial cells (Sag system); test: BioMAP Sag system (T-cell ligands); format: cell-based, human; conditions: 10 uM; procedure of Example 828
Protocol: The BioMAP platform (BioMAP® Diversity PLUS® Panel from Eurofins) is an in vitro phenotypic profiling technology that screened the compounds of the present disclosure (hereafter indicated as test agents) in human primary cell-based systems modelling complex tissue and disease states. The BioMAP assays were performed using the Eurofin's BioMAP Technology Platform as (see references 1 to 13 in the example 824 section) to model different diseases on primary cell-based model systems. These systems consisted of either single primary cell types or co-culture cells. Adherent cell types were cultured or co-cultured in 96 or 384-well plates until confluence followed by the addition of compounds prepared in DMSO at a final concentration of ≤0.1%. In each cell-based system, primary cells from heathy donors (2-6 donors) were pooled and treated with compounds at 1 and 10 μM dose 1h prior to stimulation and remain in culture as indicated in Example 825, Example 826, Example 827, Example 828, Example 829, Example 830, Example 831, Example 832, Example 833, Example 834, Example 835, Example 836 and Example 837. For on the BioMAP® Diversity PLUS® Panel, please see the following references, which are incorporate herein.
Following the general procedure as described in Example 824, Peripheral blood mononuclear cells were co-cultured with venular endothelial cells and treated with soluble antigen (T-cell ligands) (Sag system) in the presence or absence of compounds to model autoimmune and chronic inflammation. Biomarkers read out were; MCP-1, CD38, CD40, E-selectin, CD69, IL-8, MIG, PBMC cytotoxicity, Proliferation and SRB.

[8] = system: Peripheral blood mononuclear cells co-cultured with venular endothelial cells (HUVEC) (LPS system); test: BioMAP LPS system; format: cell-based, human; conditions: procedure of Example 827
[9] = system: Venular Endothelial cells (HUVEC) (4H system); test: BioMAP 4H system (IL-4 and histamine); format: cell-based, human; conditions: 10 uM; procedure of Example 826
[10] = system: Bronchial epithelial cells (BE3C system); test: BioMAP BE3C system (IL-1β, TNFα, IFNγ); format: cell-based, human; conditions: Homo sapiens, Epithelial cell, 24 h; 10 uM; procedure of Example 831; read-out: % decrease in MMP-1
[11] = system: Coronary artery smooth muscle cells (CASM3C system); test: BioMAP CASM3C system (IL-1β, TNFα, IFNγ); format: cell-based, human
[12] = system: Bronchial epithelial cells co-cultured with dermal fibroblast (BF4T system); test: BioMAP BF4T system (TNFα and IL-4); format: cell-based, human; conditions: Homo sapiens, 24 h; 10 uM; procedure of Example 830; read-out: % increase in VCAM-1

CC(C)(CO)[C@@H](OC(=O)CN)C(=O)NCCC(=O)NCCSC(=O)CCC(=O)O [Compound 1292, 4-[(2-[3-[(2R)-2-[(2-aminoacetyl)oxy]-4-hydroxy-3,3-dimethylbutanamido]propanamido]ethyl)sulfanyl]-4-oxobutanoic acid]
inhibition at 50 µM [1]: ≥ 10% | activation at 10 µM ([2]; assay condition D (1 mM glucose, 10% FBS), 10 μM, read-out: Increase in Spare Capacity AUC): ≥ 30% | inhibition at 10 µM ([3]; Fibroblast, KSS GM06225, read-out: Decreased ROS by at least 30%): ≥ 30% | inhibition at 10 µM ([3]; Fibroblast, Leigh GM13411, read-out: Decreased ROS by at least 10%): ≥ 10% | inhibition at 10 µM ([3]; FXN GM04078, read-out: Decreased ROS by at least 10%): ≥ 10% | inhibition at 10 µM ([3]; FXN GM04078, read-out: Decreased ROS by at least 30%): ≥ 30% | activation at 10 µM [4]: ≥ 10%

CCC(=O)OCC(C)(C)[C@@H](O)C(=O)NCCC(=O)NCCSC(=O)CCC(=O)O [Compound 157, 4-[(2-[3-[(2R)-2-hydroxy-3,3-dimethyl-4-(propanoyloxy)butanamido]propanamido]ethyl)sulfanyl]-4-oxobutanoic acid]
activation at 1 µM [5]: ≥ 10% | activation at 50 µM (HepG2 cells): ≥ 20% | inhibition at 1 µM [6]: ≥ 10% | % increase in Proliferation [7]: ≥10% | % increase in Tissue Factor ([8]; 1 uM): ≥10% | inhibition at 10 µM ([8]; Homo sapiens, HUVEC, 24 h, 10 uM, read-out: % decrease in IL-1α): ≥ 10% | inhibition at 10 µM ([8]; Homo sapiens, HUVEC, 24 h, 10 uM, read-out: % decrease in TissueFactor): ≥ 10% | activation at 10 µM ([8]; Homo sapiens, HUVEC, 24 h, 10 uM, read-out: % increase in sTNFα): ≥ 10% | % decrease in MCP-1 [9]: ≥10% | inhibition at 10 µM [10]: ≥ 10% | activation at 50 µM ([2]; assay condition C (10 mM glucose, 10% FBS), 50 μM, read-out: Increase in Maximal Respiratory Capacity AUC): ≥ 10% | % decrease in Proliferation ([11]; 1 uM, procedure of Example 832): ≥10% | % decrease in HLA-DR ([11]; 10 uM): ≥10% | activation at 10 µM [12]: ≥ 10%
